Consider seven compounds from patent publication US20230212163A1, “2-(HET)ARYL-SUBSTITUTED CONDENSED HETEROCYCLIC DERIVATIVES AS PEST CONTROL AGENTS” (Bayer Aktiengesellschaft, priority 2020, published 2023).

Common to all, as to format: in vivo
Assay [1] concerns Myzus persicae. Put plainly: Myzus persicae oral test. The note with it: 120 h, application rate 4 ppm, after 5 days, read-out: efficacy. The protocol:
[table] To produce a suitable active compound formulation, 1 part by weight of active compound is dissolved using the specified parts by weight of solvent and made up with water until the desired concentration is attained. 50 μl of the active compound formulation are transferred into microtitre plates and made up to a final volume of 200 μl with 150 μl of IPL41 insect medium (33%+15% sugar). Subsequently, the plates are sealed with parafilm, which a mixed population of green peach aphids (Myzus persicae) within a second microtitre plate is able to puncture and imbibe the solution through. After 5 days, the efficacy in % is determined. 100% means that all the aphids have been killed; 0% means that no aphids have been killed.

Another assay concerns Phaedon cochleariae. Put plainly: Phaedon cochleariae spray test. The note with it: application rate 100 g/ha, after 7 days. The protocol: (§1) [table] To produce a suitable active compound formulation, 1 part by weight of active compound is dissolved using the stated parts by weight of solvent and made up with water containing an emulsifier concentration of 1000 ppm until the desired concentration is attained. To produce further test concentrations, the formulation is diluted with emulsifier-containing water. Discs of Chinese cabbage leaves (Brassica pekinensis) are sprayed with an active compound formulation of the desired concentration and, after drying, populated with larvae of the mustard beetle (Phaedon cochleariae). After 7 days, the efficacy in % is determined. 100% means that all the beetle larvae have been killed; 0% means that no beetle larvae have been killed.

Assay [2] deals with Spodoptera frugiperda. Put plainly: Spodoptera frugiperda spray test (maize leaf discs). The note with it: Spodoptera frugiperda, foliar, 168 h, application rate 100 g/ha, after 7 days. How it is done: as §1, with “water. Leaf discs” for “water. Discs”, “of maize (Zea mays)” for “of Chinese cabbage leaves (Brassica pekinensis)”, “with caterpillars” for “with larvae”, “the fall armyworm (Spodoptera frugiperda).” for “the mustard beetle (Phaedon cochleariae).”, “the caterpillars” for “the beetle larvae”, “no caterpillar has” for “no beetle larvae have”

In another assay the test system is Heliothis armigera. Put plainly: Heliothis armigera spray test (HELIAR), comparative. The note with it: Helicoverpa armigera, 168 h, 7 dat, read-out: % efficacy. How it is done: (§2) [table] To produce a suitable active compound formulation, 1 part by weight of active compound is dissolved using the stated parts by weight of solvent and made up with water containing an emulsifier concentration of 1000 ppm until the desired concentration is attained. To produce further test concentrations, the formulation is diluted with emulsifier-containing water. If the addition of ammonium salts or/and penetrants is required, these are each added in a concentration of 1000 ppm to the formulation solution. Cotton plants (Gossypium hirsutum) are sprayed with an active compound formulation of the desired concentration and, after drying, populated with caterpillars of the cotton bollworm (Heliothis armigera). After the desired time, the kill in % is determined. 100% means that all caterpillars have been killed; 0% means that none of the caterpillars have been killed.

Another assay has as its system Plutella xylostella. Kind of assay: Plutella xylostella spray test (PLUTMA), comparative. Conditions: 168 h, 7 dat, read-out: % efficacy. How it is done: as §2, with “solution. Cabbage leaves (Brassica oleracea)” for “solution. Cotton plants (Gossypium hirsutum)”, “concentration and infected” for “concentration and, after drying, populated”, “with larvae” for “with caterpillars”, “the diamondback moth (Plutella xylostella).” for “the cotton bollworm (Heliothis armigera).”

The subject of assay [3] is Spodoptera frugiperda. Put plainly: Spodoptera frugiperda spray test (SPODFR, cotton leaves), comparative. Conditions: 168 h, 7 dat, read-out: % efficacy. How it is done: as §2, with “leaves” for “plants”, “and” for “and, after drying,”, “armyworm (Spodoptera frugiperda).” for “cotton bollworm (Heliothis armigera).”
Assay [4] relates to Myzus persicae. Put plainly: Myzus persicae spray test. Conditions: application rate 100 g/ha, after 5 days. How it is done:
as §1, with “pekinensis) infested by all stages of the green peach aphid (Myzus persicae)” for “pekinensis)”, “concentration.” for “concentration and, after drying, populated with larvae of the mustard beetle (Phaedon cochleariae).”, “5” for “7”, “aphids” for “beetle larvae”

The subject of the next assay is Diabrotica balteata. Kind of assay: Diabrotica balteata spray test. Conditions: Diabrotica balteata, 168 h, application rate 100 g/ha, after 7 days. How it is done:
[table] To produce a suitable active compound formulation, 1 part by weight of active compound is dissolved using the stated parts by weight of solvent and made up with water containing an emulsifier concentration of 1000 ppm until the desired concentration is attained. To produce further test concentrations, the formulation is diluted with emulsifier-containing water. Pre-swollen wheat grains (Triticum aestivum) are incubated in a multiwell plate filled with agar and a little water for one day (5 seed grains per cavity). The germinated wheat grains are sprayed with an active compound formulation of the desired concentration. Subsequently, each cavity is infected with 10-20 beetle larvae of Diabrotica balteata. After 7 days, the efficacy in % is determined. 100% means that all wheat plants have grown as in the untreated, uninfected control; 0% means that no wheat plant has grown.

For another assay, the system named is Meloidogyne incognita. Put plainly: Meloidogyne incognita test. The note with it: application rate 20 ppm, after 14 days. How it is done:
[table] To produce an appropriate active ingredient formulation, 1 part by weight of active ingredient is mixed with the stated amount of solvent and the concentrate is diluted to the desired concentration with water. Vessels are filled with sand, active ingredient solution, an egg/larvae suspension of the southern root-knot nematode (Meloidogyne incognita) and lettuce seeds. The lettuce seeds germinate and the plants develop. The galls develop on the roots. After 14 days, the nematicidal efficacy in % is determined by the formation of galls. 100% means that no galls were found; 0% means that the number of galls on the treated plants corresponds to the untreated control.

The next assay relates to Nezara viridula. Kind of assay: Nezara viridula spray test. The note with it: Nezara viridula, 96 h, application rate 500 g/ha, after 4 days. The protocol: [table] To produce a suitable active compound formulation, 1 part by weight of active compound is dissolved using the stated parts by weight of solvent and made up with water containing an emulsifier concentration of 1000 ppm until the desired concentration is attained. To produce further test concentrations, the formulation is diluted with emulsifier-containing water. Barley plants (Hordeum vulgare) are sprayed with an active compound formulation of the desired concentration and are infected with larvae of the Southern green shield bug (Nezara viridula). After 4 days, the efficacy in % is determined. 100% means that all of the shield bugs have been killed; 0% means that none of the shield bugs have been killed.

Regarding `CCS(=O)(=O)c1ccc(-n2ncn(-c3ccc(Cl)cc3)c2=O)nc1-c1nc2cc(S(=O)(=O)C(F)(F)F)ccc2o1` [Example I-02], the pest or weed control at 4 ppm in the assay on Myzus persicae [1] amounted to 90%. Further, in the assay on Phaedon cochleariae, the activity came to 100%. The pest or weed control at 100 g/ha in the assay on Spodoptera frugiperda [2] turned out to be 100%. In addition, the Emax at 0.8 ppm in the assay with Heliothis armigera, in the assay with Plutella xylostella and in the assay with Spodoptera frugiperda [3] was 100% in each case. For the same compound, the Emax at 4 ppm in the assay with Heliothis armigera was 100%.

As for `CCS(=O)(=O)c1ccc(-n2ncn(C3CC3)c2=O)nc1-c1nc2cc(S(=O)(=O)C(F)(F)F)ccc2o1` [Example I-03], in the assay on Myzus persicae [1], the pest or weed control at 4 ppm was determined as 100%. The activity in the assay with Myzus persicae [4] and in the assay on Phaedon cochleariae was 100% throughout. The compound also registered a pest or weed control at 100 g/ha in the assay with Spodoptera frugiperda [2] of 100%.

`CCS(=O)(=O)c1ccc(-n2ncn(-c3ccc(F)cc3)c2=O)nc1-c1nc2cc(S(=O)(=O)C(F)(F)F)ccc2o1` [Example I-04]: in the assay on Myzus persicae [1], the pest or weed control at 4 ppm turned out to be 100%. In the assay with Phaedon cochleariae, this compound came in with an activity of 100%. Further, the pest or weed control at 100 g/ha in the assay on Spodoptera frugiperda [2] is 100%. In addition, the Emax at 4 ppm with Heliothis armigera and in the assay on Plutella xylostella was 100% throughout. Moreover, the Emax at 0.8 ppm with Spodoptera frugiperda [3] worked out at 100%.

Take `CCS(=O)(=O)c1ccc(-n2ncn(-c3ccc(C4(C#N)CC4)cc3)c2=O)nc1-c1nc2cc(S(=O)(=O)C(F)(F)Cl)ccc2o1` [Example I-18]: the pest or weed control at 100 g/ha in the assay on Diabrotica balteata is 100%. The “nematicidal efficacy (formation of galls)” value in the assay on Meloidogyne incognita stood at 100%.

For the compound `CCS(=O)(=O)c1ccc(-n2ncn(-c3ccc(OC)nc3)c2=O)nc1-c1nc2cc(S(=O)(=O)C(F)(F)F)ccc2o1` [Example I-43], the pest or weed control at 100 g/ha was found to be 80% with Diabrotica balteata and 83% in the assay on Spodoptera frugiperda [2]. Further, in the assay with Meloidogyne incognita, the “nematicidal efficacy (formation of galls)” value came to 90%. In addition, the pest or weed control at 500 g/ha in the assay on Nezara viridula turned out to be 90%.

`CCc1nc(C(F)(F)F)cc2nc(-c3nc(-n4ncn(-c5ccc(O)cc5)c4=O)ccc3S(=O)(=O)CC)n(C)c12` [I-016 Known from WO2018/141954, reference compound]: the Emax at 0.8 ppm in the assay on Heliothis armigera turned out to be 10%; in the assay on Plutella xylostella it was 70%; in the assay with Spodoptera frugiperda [3], 65%. Also, the Emax at 4 ppm in the assay on Heliothis armigera came to 55%.

Consider `CCS(=O)(=O)c1ccc(-n2cnn(-c3ccccc3F)c2=O)nc1-c1nc2cc(C(F)(F)F)ccc2n1C` [I-34 Known from WO2017/055185, reference compound], for which the Emax at 4 ppm in the assay on Heliothis armigera and in the assay with Plutella xylostella was 0% throughout. In the assay with Spodoptera frugiperda [3], the Emax at 0.8 ppm stood at 0%.
